Active and inactive are the calls of the source. A value given as a limit tells only on which side of the number the result lay.

Assay [1] addresses E3 ubiquitin-protein ligase Mdm2 (Homo sapiens, UniProt Q00987). Briefly: MDM2-luc reporter signal enhancers, multi-concentration potency testing, MDM2 ubiquitin-protein ligase inhibitor program, whole-cell format, luminescence detection, 384-well microplate (AID 1394).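 Further: MDM2 E3 inhibitors raise luminescence so EC50 is for signal enhancement.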 In kind it is functional.
Assay [2] is described as follows: HEK-293T viability loss after treatment – luminescence, T-cell screen hits, cytotoxicity control for TCR NF-kB inhibitor project, dose response (AID 489026).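 Further: cells exposed to compound about 14 hours before the viability readout.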 In kind it is functional, cell-based.
Assay [3] deals with DNA damage-inducible transcript 3 protein (Mus musculus, UniProt P35639). In kind it is functional, Cricetulus griseus.
Chain of DNA damage-inducible transcript 3 protein (P35639 whole entry): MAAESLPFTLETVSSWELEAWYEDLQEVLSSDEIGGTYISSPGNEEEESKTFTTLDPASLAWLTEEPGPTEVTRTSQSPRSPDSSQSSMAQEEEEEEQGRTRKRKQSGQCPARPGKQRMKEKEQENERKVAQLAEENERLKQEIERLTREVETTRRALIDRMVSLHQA
The subject of the next assay is INS1. Briefly: INS-1E survival protection against cytokine death – cell-based, luminescence, retest, dose response (AID 449756).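 Further: cell death triggered by IL-1 beta plus TNF-alpha plus IFN-gamma mixture; protective hits raise ATP signal compared with cytokine alone wells.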 In kind it is functional. The following applies: Rattus norvegicus.
Assay [4] addresses Dual specificity protein phosphatase 3 (Homo sapiens, UniProt P51452). Briefly: inhibition constants for human DUSP3 – biochemical, colorimetric, SAR follow-up (AID 2004).
In assay [5] the target is Alkaline phosphatase, placental type (Homo sapiens, UniProt P05187). Briefly: human placental alkaline phosphatase inhibition – biochemical, luminescence, confirmation (AID 1512). In kind it is functional.
Chain of Alkaline phosphatase, placental type (P05187 whole entry): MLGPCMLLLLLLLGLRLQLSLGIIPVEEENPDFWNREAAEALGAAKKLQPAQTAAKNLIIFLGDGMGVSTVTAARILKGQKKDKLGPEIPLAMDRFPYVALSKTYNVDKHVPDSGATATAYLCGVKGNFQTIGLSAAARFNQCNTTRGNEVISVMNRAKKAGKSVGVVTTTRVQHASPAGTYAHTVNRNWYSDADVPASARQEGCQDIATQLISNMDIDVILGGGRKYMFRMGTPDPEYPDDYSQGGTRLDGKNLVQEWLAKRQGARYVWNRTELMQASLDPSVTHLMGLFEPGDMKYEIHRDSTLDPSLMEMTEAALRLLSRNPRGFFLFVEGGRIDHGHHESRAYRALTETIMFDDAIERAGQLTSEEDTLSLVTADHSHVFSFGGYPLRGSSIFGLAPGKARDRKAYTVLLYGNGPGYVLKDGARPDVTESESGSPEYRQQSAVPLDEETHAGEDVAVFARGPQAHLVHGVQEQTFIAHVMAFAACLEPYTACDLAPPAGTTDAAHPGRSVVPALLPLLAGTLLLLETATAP
In assay [6] the target is Induced myeloid leukemia cell differentiation protein Mcl-1 (Homo sapiens, UniProt Q07820). It counts as functional.
Chain of Induced myeloid leukemia cell differentiation protein Mcl-1 (Q07820 whole entry): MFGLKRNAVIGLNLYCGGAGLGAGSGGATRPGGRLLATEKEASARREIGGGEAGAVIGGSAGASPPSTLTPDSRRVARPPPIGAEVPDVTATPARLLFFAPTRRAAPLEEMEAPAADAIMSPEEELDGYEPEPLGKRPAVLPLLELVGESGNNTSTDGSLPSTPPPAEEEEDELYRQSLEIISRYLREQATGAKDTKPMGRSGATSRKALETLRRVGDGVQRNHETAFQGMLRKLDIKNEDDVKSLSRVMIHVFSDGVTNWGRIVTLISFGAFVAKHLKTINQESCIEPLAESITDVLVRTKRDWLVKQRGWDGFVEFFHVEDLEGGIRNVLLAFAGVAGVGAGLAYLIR
Assay [7] addresses Glucose-6-phosphate 1-dehydrogenase (Homo sapiens, UniProt P11413). Briefly: inhibition of Homo sapiens G6PD, dose series – biochemical, fluorescence, selectivity assay for P. falciparum G6PD inhibitor project, dose response (AID 504792). In kind it is functional.
In a further assay the target is T1, Hexokinase HKDC1 (Homo sapiens, UniProt Q2TB90).
T1 sequence (Q2TB90 whole entry): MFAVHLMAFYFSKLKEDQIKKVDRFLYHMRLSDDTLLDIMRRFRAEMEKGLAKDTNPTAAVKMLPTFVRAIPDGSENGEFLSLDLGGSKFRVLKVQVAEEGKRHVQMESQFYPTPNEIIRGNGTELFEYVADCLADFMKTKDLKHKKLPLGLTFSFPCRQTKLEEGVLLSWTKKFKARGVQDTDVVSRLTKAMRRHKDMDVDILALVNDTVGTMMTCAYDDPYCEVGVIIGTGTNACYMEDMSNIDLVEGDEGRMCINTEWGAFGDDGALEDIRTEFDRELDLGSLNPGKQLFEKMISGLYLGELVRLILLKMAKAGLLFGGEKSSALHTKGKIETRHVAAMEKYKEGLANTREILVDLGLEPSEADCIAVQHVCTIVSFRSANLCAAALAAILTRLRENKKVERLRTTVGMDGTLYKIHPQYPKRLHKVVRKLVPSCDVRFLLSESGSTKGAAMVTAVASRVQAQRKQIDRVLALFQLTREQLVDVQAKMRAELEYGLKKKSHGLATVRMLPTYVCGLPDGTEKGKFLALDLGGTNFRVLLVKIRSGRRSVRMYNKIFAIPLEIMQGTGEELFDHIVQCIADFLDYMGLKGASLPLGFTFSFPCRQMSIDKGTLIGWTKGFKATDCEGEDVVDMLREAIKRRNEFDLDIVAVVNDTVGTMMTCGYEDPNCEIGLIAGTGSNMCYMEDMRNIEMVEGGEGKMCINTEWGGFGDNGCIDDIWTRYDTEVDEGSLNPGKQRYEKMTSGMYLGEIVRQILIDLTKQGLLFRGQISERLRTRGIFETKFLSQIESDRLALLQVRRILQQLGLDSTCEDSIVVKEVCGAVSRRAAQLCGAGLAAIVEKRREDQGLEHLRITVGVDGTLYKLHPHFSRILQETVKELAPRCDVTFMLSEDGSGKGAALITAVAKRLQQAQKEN
Briefly: inhibition of HKDC1 glucose phosphorylation – biochemical, W721R variant, dose response (AID 504729). It counts as functional.

Assay [8] has as its target T2, Replicative DNA helicase DnaB (Mycobacterium tuberculosis, UniProt P9WMR3).
T2 sequence (P9WMR3 whole entry): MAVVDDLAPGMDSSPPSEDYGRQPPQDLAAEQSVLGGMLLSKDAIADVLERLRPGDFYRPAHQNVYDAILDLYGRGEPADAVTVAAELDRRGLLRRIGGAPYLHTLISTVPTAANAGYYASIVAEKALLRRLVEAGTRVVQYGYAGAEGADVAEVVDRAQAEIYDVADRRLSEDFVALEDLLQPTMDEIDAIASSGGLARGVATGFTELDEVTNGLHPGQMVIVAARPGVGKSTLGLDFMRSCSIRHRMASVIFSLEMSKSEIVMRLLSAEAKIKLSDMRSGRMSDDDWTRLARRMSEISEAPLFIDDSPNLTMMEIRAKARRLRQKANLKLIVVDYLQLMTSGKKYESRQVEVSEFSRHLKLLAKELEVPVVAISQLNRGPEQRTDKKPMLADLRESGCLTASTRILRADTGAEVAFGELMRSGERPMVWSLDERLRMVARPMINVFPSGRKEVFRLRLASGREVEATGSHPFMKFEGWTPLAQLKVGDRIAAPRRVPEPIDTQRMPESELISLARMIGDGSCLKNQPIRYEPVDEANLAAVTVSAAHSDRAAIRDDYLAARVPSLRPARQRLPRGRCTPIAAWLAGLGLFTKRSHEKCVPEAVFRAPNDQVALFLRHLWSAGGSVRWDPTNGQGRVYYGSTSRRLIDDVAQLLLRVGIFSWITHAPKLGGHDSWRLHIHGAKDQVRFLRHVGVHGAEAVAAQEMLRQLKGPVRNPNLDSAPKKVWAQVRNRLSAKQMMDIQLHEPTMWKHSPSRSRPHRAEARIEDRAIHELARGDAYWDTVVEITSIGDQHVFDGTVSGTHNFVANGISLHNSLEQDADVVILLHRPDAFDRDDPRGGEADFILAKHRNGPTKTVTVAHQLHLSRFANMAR
Briefly: DnaB intein splicing inhibitors, dose response, biochemical, cell-free fluorescence (AID 449749). It counts as functional.

In the next assay the target is T3, Protein RecA (Mycobacterium tuberculosis, UniProt P9WHJ3).
T3 sequence (P9WHJ3 whole entry): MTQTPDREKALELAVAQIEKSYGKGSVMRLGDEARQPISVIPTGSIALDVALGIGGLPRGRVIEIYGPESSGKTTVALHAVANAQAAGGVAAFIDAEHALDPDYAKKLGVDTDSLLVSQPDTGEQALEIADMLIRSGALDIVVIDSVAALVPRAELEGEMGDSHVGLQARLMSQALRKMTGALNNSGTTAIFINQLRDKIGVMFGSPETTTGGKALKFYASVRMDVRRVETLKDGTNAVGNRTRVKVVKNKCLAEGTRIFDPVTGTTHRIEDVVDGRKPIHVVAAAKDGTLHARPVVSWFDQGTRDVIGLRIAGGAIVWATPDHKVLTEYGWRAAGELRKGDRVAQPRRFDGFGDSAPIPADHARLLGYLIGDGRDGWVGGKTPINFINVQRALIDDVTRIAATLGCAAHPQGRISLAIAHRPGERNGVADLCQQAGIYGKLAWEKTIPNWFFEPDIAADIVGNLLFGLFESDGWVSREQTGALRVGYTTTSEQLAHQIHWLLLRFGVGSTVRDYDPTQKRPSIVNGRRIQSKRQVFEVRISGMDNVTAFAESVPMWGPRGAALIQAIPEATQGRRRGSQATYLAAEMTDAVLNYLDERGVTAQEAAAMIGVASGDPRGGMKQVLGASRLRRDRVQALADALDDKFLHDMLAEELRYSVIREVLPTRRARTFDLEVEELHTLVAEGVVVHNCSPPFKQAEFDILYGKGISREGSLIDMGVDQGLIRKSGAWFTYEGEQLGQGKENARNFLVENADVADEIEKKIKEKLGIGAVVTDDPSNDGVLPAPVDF
Briefly: Fluorescence Cell-Free Homogeneous Dose Retest to Identify Inhibitors of RecA-Intein Splicing Activity. [Related pubchem assays (depositor defined):AID2097, AID2223, AID489010, AID492950]. It counts as functional.

The target of a further assay is Genome polyprotein (dengue virus type 2, UniProt P29990). Briefly: flavivirus cap methylation enzyme inhibition – biochemical, confirmation dose response, primary screen (AID 588689). In kind it is functional.
Chain of Genome polyprotein (P29990 2492-3391 limits assumed): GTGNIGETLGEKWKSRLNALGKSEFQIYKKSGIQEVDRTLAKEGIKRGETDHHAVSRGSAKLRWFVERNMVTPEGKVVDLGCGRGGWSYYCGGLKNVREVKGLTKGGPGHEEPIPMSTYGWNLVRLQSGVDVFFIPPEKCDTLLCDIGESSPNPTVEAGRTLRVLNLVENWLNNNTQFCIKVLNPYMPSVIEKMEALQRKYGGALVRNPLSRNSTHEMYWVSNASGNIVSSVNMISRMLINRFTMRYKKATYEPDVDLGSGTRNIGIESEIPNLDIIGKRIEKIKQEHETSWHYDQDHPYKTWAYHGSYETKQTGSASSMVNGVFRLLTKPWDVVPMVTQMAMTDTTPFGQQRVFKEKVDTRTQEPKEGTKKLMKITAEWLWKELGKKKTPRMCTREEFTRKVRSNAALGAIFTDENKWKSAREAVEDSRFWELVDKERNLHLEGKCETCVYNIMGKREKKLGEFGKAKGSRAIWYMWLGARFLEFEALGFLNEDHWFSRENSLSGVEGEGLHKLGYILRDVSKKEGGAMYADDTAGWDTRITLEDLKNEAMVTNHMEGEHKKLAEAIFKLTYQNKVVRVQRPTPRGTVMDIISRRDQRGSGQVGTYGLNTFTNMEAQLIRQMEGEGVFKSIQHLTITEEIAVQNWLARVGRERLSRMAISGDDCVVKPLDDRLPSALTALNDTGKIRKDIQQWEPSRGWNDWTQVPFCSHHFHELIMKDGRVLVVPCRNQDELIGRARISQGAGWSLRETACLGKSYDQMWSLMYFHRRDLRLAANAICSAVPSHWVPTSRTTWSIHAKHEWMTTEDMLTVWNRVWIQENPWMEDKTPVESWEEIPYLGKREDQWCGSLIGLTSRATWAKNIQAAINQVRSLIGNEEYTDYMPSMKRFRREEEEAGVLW
In the next assay the target is Large T antigen (Simian virus 40, UniProt P03070). In kind it is functional, Betapolyomavirus macacae.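 Further: Confirmatory-stage PubChem screen for compounds that inhibit SV40 T antigen.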
Chain of Large T antigen (P03070 whole entry): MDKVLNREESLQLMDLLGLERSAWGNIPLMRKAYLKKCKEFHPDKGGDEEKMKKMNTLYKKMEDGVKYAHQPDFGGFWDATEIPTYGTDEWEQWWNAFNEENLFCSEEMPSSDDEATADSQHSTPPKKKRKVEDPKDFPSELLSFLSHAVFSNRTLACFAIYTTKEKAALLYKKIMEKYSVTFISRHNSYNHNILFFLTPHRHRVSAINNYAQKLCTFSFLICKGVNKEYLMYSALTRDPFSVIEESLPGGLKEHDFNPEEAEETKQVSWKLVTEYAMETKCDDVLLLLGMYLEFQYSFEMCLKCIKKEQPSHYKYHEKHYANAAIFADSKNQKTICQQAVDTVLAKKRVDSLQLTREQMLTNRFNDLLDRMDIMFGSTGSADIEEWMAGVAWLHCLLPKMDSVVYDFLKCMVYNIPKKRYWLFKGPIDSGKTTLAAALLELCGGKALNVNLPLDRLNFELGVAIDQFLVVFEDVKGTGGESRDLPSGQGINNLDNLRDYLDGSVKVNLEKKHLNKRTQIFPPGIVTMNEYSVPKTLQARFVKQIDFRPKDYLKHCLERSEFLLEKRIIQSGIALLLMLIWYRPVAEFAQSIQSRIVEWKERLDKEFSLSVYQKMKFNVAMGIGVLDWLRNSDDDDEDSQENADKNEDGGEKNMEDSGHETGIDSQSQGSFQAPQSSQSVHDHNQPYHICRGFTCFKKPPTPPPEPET
Assay [9] addresses T4, Mannose-6-phosphate isomerase (Homo sapiens, UniProt P34949).
T4 sequence (P34949 whole entry): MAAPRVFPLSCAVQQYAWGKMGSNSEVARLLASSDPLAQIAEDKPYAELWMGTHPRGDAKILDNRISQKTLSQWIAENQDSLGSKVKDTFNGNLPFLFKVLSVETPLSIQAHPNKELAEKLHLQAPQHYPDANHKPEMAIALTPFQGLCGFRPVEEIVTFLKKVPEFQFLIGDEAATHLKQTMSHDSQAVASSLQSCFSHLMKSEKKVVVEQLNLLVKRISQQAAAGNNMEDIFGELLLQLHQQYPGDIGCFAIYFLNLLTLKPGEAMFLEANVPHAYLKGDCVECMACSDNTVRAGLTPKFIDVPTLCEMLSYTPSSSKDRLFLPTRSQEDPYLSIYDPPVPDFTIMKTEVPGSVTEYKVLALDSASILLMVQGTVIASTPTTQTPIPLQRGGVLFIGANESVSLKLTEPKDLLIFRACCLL
Briefly: phosphomannose isomerase inhibition – biochemical, fluorescence intensity, confirmation (AID 1535).

In assay [10] the target is DNA dC->dU-editing enzyme APOBEC-3A (Homo sapiens, UniProt P31941). Briefly: A3A deaminase inhibition for selectivity – biochemical, dose response (AID 504722). In kind it is functional.
Chain of DNA dC->dU-editing enzyme APOBEC-3A (P31941 whole entry): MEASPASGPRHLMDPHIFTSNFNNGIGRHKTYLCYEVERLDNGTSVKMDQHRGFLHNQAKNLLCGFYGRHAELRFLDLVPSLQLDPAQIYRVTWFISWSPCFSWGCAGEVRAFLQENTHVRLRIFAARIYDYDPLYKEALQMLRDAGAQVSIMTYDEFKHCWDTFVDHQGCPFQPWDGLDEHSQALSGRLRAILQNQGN
In a further assay the target is T5, Phosphomannomutase 2 (Homo sapiens, UniProt O15305).
T5 sequence (O15305 whole entry): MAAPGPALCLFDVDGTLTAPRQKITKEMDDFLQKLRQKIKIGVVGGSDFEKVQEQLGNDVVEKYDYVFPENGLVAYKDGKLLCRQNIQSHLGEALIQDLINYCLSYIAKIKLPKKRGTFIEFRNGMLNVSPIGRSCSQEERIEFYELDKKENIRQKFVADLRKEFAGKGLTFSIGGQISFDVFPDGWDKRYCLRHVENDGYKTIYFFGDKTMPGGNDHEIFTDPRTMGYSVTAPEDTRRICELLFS
Briefly: Counter screen SAR assay for PMM2 inhibitors via a fluorescence intensity assay. [Related pubchem assays (depositor defined):AID1545, AID1574].

The target in assay [11] is DNA dC->dU-editing enzyme APOBEC-3G (Homo sapiens, UniProt Q9HC16). Briefly: Dose Response confirmation of small molecule APOBEC3G DNA Deaminase Inhibitors via a fluorescence-based single-stranded DNA deaminase assay. [Related pubchem assays (depositor defined):AID493012, AID493028]. It counts as functional.
Chain of DNA dC->dU-editing enzyme APOBEC-3G (Q9HC16 whole entry): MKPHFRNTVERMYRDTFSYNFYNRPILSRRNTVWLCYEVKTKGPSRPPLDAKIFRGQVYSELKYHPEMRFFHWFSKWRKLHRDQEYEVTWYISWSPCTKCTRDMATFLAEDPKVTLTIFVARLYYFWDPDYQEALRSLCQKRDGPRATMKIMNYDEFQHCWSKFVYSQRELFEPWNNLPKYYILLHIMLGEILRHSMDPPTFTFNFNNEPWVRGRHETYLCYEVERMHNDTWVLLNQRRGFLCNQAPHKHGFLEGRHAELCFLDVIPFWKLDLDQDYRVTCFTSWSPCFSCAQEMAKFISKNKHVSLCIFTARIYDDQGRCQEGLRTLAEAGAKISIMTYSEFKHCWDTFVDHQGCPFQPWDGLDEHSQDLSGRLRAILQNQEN
Assay [12] has as its target Mitochondrial peptide methionine sulfoxide reductase (Bos taurus, UniProt P54149). Briefly: Absorbance-based biochemical high throughput dose response assay for activators of Methionine sulfoxide reductase A (MsrA). It counts as functional.
The target in assay [13] is Neurotensin receptor type 1 (Homo sapiens, UniProt P30989). In kind it is functional.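 Further: Image-based confirmatory dose-response assay measuring agonist activity at NTR1; NTR1-expressing U2OS osteosarcoma cells imaged for beta-arrestin GFP spot formation; agonist potency where compounds increase beta-arrestin recruitment.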
Chain of Neurotensin receptor type 1 (P30989 whole entry): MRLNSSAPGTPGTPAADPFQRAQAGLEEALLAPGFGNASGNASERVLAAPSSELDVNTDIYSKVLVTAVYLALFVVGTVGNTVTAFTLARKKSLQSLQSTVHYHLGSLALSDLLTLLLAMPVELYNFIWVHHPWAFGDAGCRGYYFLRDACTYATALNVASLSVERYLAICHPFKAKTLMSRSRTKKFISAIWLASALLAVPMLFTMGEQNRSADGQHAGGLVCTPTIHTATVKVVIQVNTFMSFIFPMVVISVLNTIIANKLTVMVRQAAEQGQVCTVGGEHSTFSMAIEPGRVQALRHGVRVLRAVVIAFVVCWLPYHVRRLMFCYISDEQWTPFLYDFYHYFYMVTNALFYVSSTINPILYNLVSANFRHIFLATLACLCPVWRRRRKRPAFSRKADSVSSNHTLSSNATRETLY
Assay [14] concerns the target Glyceraldehyde-3-phosphate dehydrogenase (Homo sapiens, UniProt P04406).
The target in assay [15] is T6, Alkaline phosphatase, tissue-nonspecific isozyme (Homo sapiens, UniProt P05186).
T6 sequence (P05186 whole entry): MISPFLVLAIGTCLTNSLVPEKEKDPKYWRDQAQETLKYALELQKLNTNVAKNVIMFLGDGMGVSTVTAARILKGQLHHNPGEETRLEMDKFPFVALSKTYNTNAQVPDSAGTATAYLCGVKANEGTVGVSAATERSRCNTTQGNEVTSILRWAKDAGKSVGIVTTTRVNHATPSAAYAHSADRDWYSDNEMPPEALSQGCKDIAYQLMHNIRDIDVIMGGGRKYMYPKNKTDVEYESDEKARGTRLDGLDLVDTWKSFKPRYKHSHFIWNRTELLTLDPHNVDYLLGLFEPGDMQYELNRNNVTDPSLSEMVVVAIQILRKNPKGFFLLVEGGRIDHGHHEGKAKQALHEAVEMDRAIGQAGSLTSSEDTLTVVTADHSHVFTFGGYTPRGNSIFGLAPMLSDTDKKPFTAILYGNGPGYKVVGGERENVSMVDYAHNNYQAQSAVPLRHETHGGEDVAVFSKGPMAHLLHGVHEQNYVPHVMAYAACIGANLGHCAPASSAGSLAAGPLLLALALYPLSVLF
Briefly: potency against alkaline phosphatase TNAP – biochemical, luminescent, dose response, SAR follow-up (AID 1056).

Chain of Glyceraldehyde-3-phosphate dehydrogenase (P04406 whole entry): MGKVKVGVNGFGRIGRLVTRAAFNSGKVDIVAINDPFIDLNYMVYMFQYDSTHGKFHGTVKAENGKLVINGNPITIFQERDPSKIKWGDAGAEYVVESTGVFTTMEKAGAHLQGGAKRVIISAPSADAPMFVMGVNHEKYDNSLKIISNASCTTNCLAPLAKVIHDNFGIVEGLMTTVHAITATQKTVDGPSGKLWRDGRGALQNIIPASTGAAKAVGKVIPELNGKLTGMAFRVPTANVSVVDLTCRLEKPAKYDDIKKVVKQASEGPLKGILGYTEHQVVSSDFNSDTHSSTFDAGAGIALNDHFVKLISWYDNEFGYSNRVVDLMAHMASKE
Chain of Dual specificity protein phosphatase 3 (P51452 whole entry): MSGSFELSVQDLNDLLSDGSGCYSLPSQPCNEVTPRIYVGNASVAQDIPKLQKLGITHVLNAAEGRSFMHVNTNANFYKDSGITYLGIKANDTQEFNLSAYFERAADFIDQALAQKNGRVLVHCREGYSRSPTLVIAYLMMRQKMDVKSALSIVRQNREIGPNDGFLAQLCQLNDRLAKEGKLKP
Chain of Glucose-6-phosphate 1-dehydrogenase (P11413 whole entry): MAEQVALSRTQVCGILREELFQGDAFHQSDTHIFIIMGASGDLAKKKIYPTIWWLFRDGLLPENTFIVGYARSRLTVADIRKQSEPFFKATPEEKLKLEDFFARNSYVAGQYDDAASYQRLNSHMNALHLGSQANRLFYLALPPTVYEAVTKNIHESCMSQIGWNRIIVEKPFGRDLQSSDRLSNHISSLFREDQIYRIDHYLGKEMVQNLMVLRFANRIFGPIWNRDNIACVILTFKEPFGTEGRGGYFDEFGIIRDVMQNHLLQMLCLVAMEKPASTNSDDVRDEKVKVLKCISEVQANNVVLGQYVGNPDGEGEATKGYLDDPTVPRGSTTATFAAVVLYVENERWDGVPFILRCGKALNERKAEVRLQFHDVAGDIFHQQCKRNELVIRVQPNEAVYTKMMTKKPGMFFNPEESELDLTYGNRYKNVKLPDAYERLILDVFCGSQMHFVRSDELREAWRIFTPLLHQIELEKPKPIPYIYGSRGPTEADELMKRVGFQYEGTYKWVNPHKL
Chain of Mitochondrial peptide methionine sulfoxide reductase (P54149 whole entry): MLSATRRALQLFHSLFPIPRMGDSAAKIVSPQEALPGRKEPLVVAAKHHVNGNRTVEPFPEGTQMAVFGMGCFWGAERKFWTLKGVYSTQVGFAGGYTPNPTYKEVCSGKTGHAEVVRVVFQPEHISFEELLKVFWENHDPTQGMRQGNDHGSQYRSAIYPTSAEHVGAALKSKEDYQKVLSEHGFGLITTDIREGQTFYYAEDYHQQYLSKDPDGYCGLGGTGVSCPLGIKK

Consider `C=C1C(=O)O[C@H]2C[C@@H](C)[C@@H]3C=CC(=O)[C@@]3(C)C[C@H]12` [AROMATICIN], for which, in assay [1], the EC50 is 0.59 µM (not active). In addition, in assay [2], the IC50 is > 80 µM (inactive). The “Absolute IC50 (CHOP)” value in [3] is 10 µM. In addition, the AC50 in the assay on INS1 was 7.82 µM (active).
Consider `CC1(C)c2ssc(=S)c2-c2ccccc2N1C(=O)CN1CCOCC1`, for which the Ki in assay [4] was 40.5 µM (inactive).
For `Oc1ccc(/C=N/N2CCN(C3c4ccccc4-c4ccccc43)CC2)c(O)c1`, the “Absolute IC50 (CHOP)” value in assay [3] was 10 µM.
Turning to `S=C(S)N(CCN(Cc1cccs1)C(=S)S)Cc1cccs1`, the Ki in [4] was 36.3 µM (inactive).
On to `COc1ccc(C(=O)NN=C(S)NC2CCCCC2)cc1OC`, for which the IC50 in assay [5] was > 100 µM (inactive).
On to `Cc1nc(COC(=O)c2cc(O)c3ccccc3c2O)cs1`, for which the IC50 was 4.84 µM (active) in assay [6], > 80 µM (inactive) in assay [7], 12.1 µM (active) on Hexokinase HKDC1 and 43.1 µM (active) at Genome polyprotein. Further, the concentration at half-maximal activity (AC50) in assay [8] is 24.7 µM (active). Moreover, the EC50 at Protein RecA was 5.24 µM (active).
Regarding `COc1cc(-c2n[nH]c(=S)[nH]2)cc(OC)c1OC`, the IC50 at Large T antigen was 8.6 µM (active); in [9], 38.9 µM (active); in assay [10], > 100 µM (inactive); on Phosphomannomutase 2, > 100 µM (inactive); in [11], 3.13 µM (active). Also, the EC50 in [12] is > 104 µM (inactive).
Consider `Sc1nncn1/N=C/c1ccc(Br)cc1`, for which the IC50 in [10] is > 100 µM (inactive); in assay [11] it was 2.72 µM (active).
For the compound `C[C@H](NC(=O)c1nc[nH]c1C(=O)Nc1cccc(Cl)c1)c1ccccc1`, in assay [13], the EC50 is 24 µM (inactive).
For `O=C(c1cc(-c2cc(F)c(Cl)cc2Cl)n[nH]1)N1CCCC1`, the figures for the IC50 in [14], in [5] and in [15] were > 100 µM (not active), > 100 µM (inactive) and > 100 µM (inactive), respectively.
Take `O=S(=O)(Nc1cnc2ccccc2c1)c1ccccc1OC(F)(F)F`: the IC50 in [14] is > 100 µM (not active); in assay [15], 16.4 µM (active).

The values are drawn from ChEMBL document CHEMBL1201862, “PubChem BioAssay data set” (2004).
